According to patent US20250270191A1, “QUINOLONE BCL6 BIFUNCTIONAL DEGRADERS” (Treeline Biosciences, Inc., priority 2022, published 2025):

Target: T1, Human BCL6 protein (N-terminal HiBiT tagged BCL6 in HT1080 cells) (Homo sapiens, UniProt P41182+Q96SW2)
T1 construct: Human BCL6 protein coding open reading frame; expressed in transfected cells; host or cells: HT1080 (ATCC CCL-121), stably transduced with lentivirus pLV-UBC-N-HiBiT-BCL6-PGK-puro
Assay: HiBiT based BCL6 degradation assay
Assay type: cell-based
Conditions: HT1080 cells expressing N-terminal HiBiT tagged BCL6; 5 hours incubation; BCL6 degradation normalized with DMSO control
Description: Human BCL6 protein coding open reading frame fused with N-terminal HiBiT coding sequence was synthesized from Integrated DNA Technologies (IDT). Next, the N-HiBiT-BCL6 sequence was cloned into pLV-UBC-PGK-Puro, a lentivirus plasmid purchased from Vectorbuilder, to generate pLV-UBC-N-HiBiT-BCL6-PGK-puro. Lentiviral particles were generated from Lenti-X™ 293T cells (Clontech) by co-transfection of pLV-UBC-N-HiBiT-BCL6-PGK-puro plasmids and lentiviral packaging plasmid mix (Cellecta). HT1080 [HT1080] (ATCC CCL-121) cells were infected with the lentivirus, and HT1080 cells stably integrated with the lentiviral vectors were established by incubation with 1 μg/mL puromycin (Thermofisher).
HT1080 cells expressing N-terminal HiBiT tagged BCL6 were dispensed into a 384-well plate pre-spotted with compounds at varying concentrations. Five thousand cells were seeded into each well in 40 μL of RPMI 1640 media plus 10% Fetal Bovine Serum (10082-147, Thermofisher). After 5 hours of incubation at 37° C. with 5% CO2, 30 μL of the NANO-GLO® HiBiT Lytic Detection System working solution (Promega) was added to each well and incubated at room temperature for 15 min. After incubation, luminescence was read on a PHERAstar FSX Plate Reader (BMG). BCL6 degradation at each indicated concentration was normalized with DMSO control. The BCL6 degradation curves were plotted using a four-parameter logistic model.

Row | SMILES | Ymin (5 hr)
1 | CNC(=O)COc1cc2cc(Nc3nc(N4CCC(CNc5ccc(C6CCC(=O)NC6=O)cc5)CC4)ncc3Cl)ccc2n(C)c1=O (stereo not drawn) [Compound 265, 2-((6-((5-chloro-2-(4-(((4-(2,6-dioxopiperidin-3-yl)phenyl)amino)methyl)piperidin-1-yl)pyrimidin-4-yl)amino)-1-methyl-2-oxo-1,2-dihydroquinolin-3-yl)oxy)-N-methylacetamide] | ++ (50% < Ymin ≤ 70%)
2 | CNC(=O)COc1cc2cc(Nc3nc(N4CCC[C@@H](CNc5cccc6c(C7CCC(=O)NC7=O)nn(C)c56)C4)ncc3Cl)ccc2n(C)c1=O (stereo partly drawn) [Compound 266a, 2-((6-((5-chloro-2-((3S)-3-(((3-(2,6-dioxopiperidin-3-yl)-1-methyl-1H-indazol-7-yl)amino)methyl)piperidin-1-yl)pyrimidin-4-yl)amino)-1-methyl-2-oxo-1,2-dihydroquinolin-3-yl)oxy)-N-methylacetamide] | ++ (50% < Ymin ≤ 70%)
3 | CNC(=O)COc1cc2cc(Nc3nc(N4CCC[C@H](CNc5cccc6c(C7CCC(=O)NC7=O)nn(C)c56)C4)ncc3Cl)ccc2n(C)c1=O (stereo partly drawn) [Compound 266b, 2-((6-((5-chloro-2-((3R)-3-(((3-(2,6-dioxopiperidin-3-yl)-1-methyl-1H-indazol-7-yl)amino)methyl)piperidin-1-yl)pyrimidin-4-yl)amino)-1-methyl-2-oxo-1,2-dihydroquinolin-3-yl)oxy)-N-methylacetamide] | ++ (50% < Ymin ≤ 70%)
4 | CNC(=O)COc1cc2cc(Nc3nc(N4CCC[C@H](CNc5cccc(C6CCC(=O)NC6=O)c5)C4)ncc3Cl)ccc2n(C)c1=O (stereo partly drawn) [Compound 275a, 2-((6-((5-chloro-2-((3R)-3-(((3-(2,6-dioxopiperidin-3-yl)phenyl)amino)methyl)piperidin-1-yl)pyrimidin-4-yl)amino)-1-methyl-2-oxo-1,2-dihydroquinolin-3-yl)oxy)-N-methylacetamide] | + (Ymin > 70%)
5 | CNC(=O)COc1cc2cc(Nc3nc(N4CCC[C@@H](CNc5cccc(C6CCC(=O)NC6=O)c5)C4)ncc3Cl)ccc2n(C)c1=O (stereo partly drawn) [Compound 275b, 2-((6-((5-chloro-2-((3S)-3-(((3-(2,6-dioxopiperidin-3-yl)phenyl)amino)methyl)piperidin-1-yl)pyrimidin-4-yl)amino)-1-methyl-2-oxo-1,2-dihydroquinolin-3-yl)oxy)-N-methylacetamide] | ++ (50% < Ymin ≤ 70%)
6 | CNC(=O)COc1cc2cc(Nc3nc(NC[C@H]4CC[C@H](Nc5ccc(C6CCC(=O)NC6=O)cc5)CC4)ncc3Cl)ccc2n(C)c1=O (stereo partly drawn) [Compound 277a, 2-((6-((5-chloro-2-((((1r,4r)-4-((4-(2,6-dioxopiperidin-3-yl)phenyl)amino)cyclohexyl)methyl)amino)pyrimidin-4-yl)amino)-1-methyl-2-oxo-1,2-dihydroquinolin-3-yl)oxy)-N-methylacetamide] | + (Ymin > 70%)
7 | CNC(=O)COc1cc2cc(Nc3nc(NC[C@H]4CC[C@@H](Nc5ccc(C6CCC(=O)NC6=O)cc5)CC4)ncc3Cl)ccc2n(C)c1=O (stereo partly drawn) [Compound 277b, 2-((6-((5-chloro-2-((((1s,4s)-4-((4-(2,6-dioxopiperidin-3-yl)phenyl)amino)cyclohexyl)methyl)amino)pyrimidin-4-yl)amino)-1-methyl-2-oxo-1,2-dihydroquinolin-3-yl)oxy)-N-methylacetamide] | ++ (50% < Ymin ≤ 70%)
8 | CNC(=O)COc1cc2cc(Nc3nc(N4CCC[C@H]4CNc4ccc5c(C6CCC(=O)NC6=O)nn(C)c5c4)ncc3Cl)ccc2n(C)c1=O (stereo partly drawn) [Compound 279a, 2-((6-((5-chloro-2-((2S)-2-(((3-(2,6-dioxopiperidin-3-yl)-1-methyl-1H-indazol-6-yl)amino)methyl)pyrrolidin-1-yl)pyrimidin-4-yl)amino)-1-methyl-2-oxo-1,2-dihydroquinolin-3-yl)oxy)-N-methylacetamide] | ++ (50% < Ymin ≤ 70%)
9 | CNC(=O)COc1cc2cc(Nc3nc(N4CCC[C@@H]4CNc4ccc5c(C6CCC(=O)NC6=O)nn(C)c5c4)ncc3Cl)ccc2n(C)c1=O (stereo partly drawn) [Compound 279b, 2-((6-((5-chloro-2-((2R)-2-(((3-(2,6-dioxopiperidin-3-yl)-1-methyl-1H-indazol-6-yl)amino)methyl)pyrrolidin-1-yl)pyrimidin-4-yl)amino)-1-methyl-2-oxo-1,2-dihydroquinolin-3-yl)oxy)-N-methylacetamide] | +++ (25% < Ymin ≤ 50%)
10 | CNC(=O)COc1cc2cc(Nc3nc(N4CCC[C@H](Nc5ccc6c(C7CCC(=O)NC7=O)nn(C)c6c5)C4)ncc3Cl)ccc2n(C)c1=O (stereo partly drawn) [Compound 280a, 2-((6-((5-chloro-2-((3S)-3-((3-(2,6-dioxopiperidin-3-yl)-1-methyl-1H-indazol-6-yl)amino)piperidin-1-yl)pyrimidin-4-yl)amino)-1-methyl-2-oxo-1,2-dihydroquinolin-3-yl)oxy)-N-methylacetamide] | ++ (50% < Ymin ≤ 70%)
11 | CNC(=O)COc1cc2cc(Nc3nc(N4CCC[C@@H](Nc5ccc6c(C7CCC(=O)NC7=O)nn(C)c6c5)C4)ncc3Cl)ccc2n(C)c1=O (stereo partly drawn) [Compound 280b, 2-((6-((5-chloro-2-((3R)-3-((3-(2,6-dioxopiperidin-3-yl)-1-methyl-1H-indazol-6-yl)amino)piperidin-1-yl)pyrimidin-4-yl)amino)-1-methyl-2-oxo-1,2-dihydroquinolin-3-yl)oxy)-N-methylacetamide] | + (Ymin > 70%)
12 | CNC(=O)COc1cc2cc(Nc3nc(N4CCC(CC5CCN(c6cccc7c(C8CCC(=O)NC8=O)nn(C)c67)CC5)CC4)ncc3Cl)ccc2n(C)c1=O (stereo not drawn) [Compound 281, 2-((6-((5-chloro-2-(4-((1-(3-(2,6-dioxopiperidin-3-yl)-1-methyl-1H-indazol-7-yl)piperidin-4-yl)methyl)piperidin-1-yl)pyrimidin-4-yl)amino)-1-methyl-2-oxo-1,2-dihydroquinolin-3-yl)oxy)-N-methylacetamide] | +++ (25% < Ymin ≤ 50%)
13 | CNC(=O)COc1cc2cc(Nc3nc(N4CCN(C5CN(c6ccc7c(C8CCC(=O)NC8=O)nn(C)c7c6)C5)CC4)ncc3Cl)ccc2n(C)c1=O (stereo not drawn) [Compound 282, 2-((6-((5-chloro-2-(4-(1-(3-(2,6-dioxopiperidin-3-yl)-1-methyl-1H-indazol-6-yl)azetidin-3-yl)piperazin-1-yl)pyrimidin-4-yl)amino)-1-methyl-2-oxo-1,2-dihydroquinolin-3-yl)oxy)-N-methylacetamide] | +++ (25% < Ymin ≤ 50%)
14 | CNC(=O)COc1cc2cc(Nc3nc(N4CCN(C5CN(c6cccc7c(C8CCC(=O)NC8=O)nn(C)c67)C5)CC4)ncc3Cl)ccc2n(C)c1=O (stereo not drawn) [Compound 283, 2-((6-((5-chloro-2-(4-(1-(3-(2,6-dioxopiperidin-3-yl)-1-methyl-1H-indazol-7-yl)azetidin-3-yl)piperazin-1-yl)pyrimidin-4-yl)amino)-1-methyl-2-oxo-1,2-dihydroquinolin-3-yl)oxy)-N-methylacetamide] | +++ (25% < Ymin ≤ 50%)
15 | CNC(=O)COc1cc2cc(Nc3nc(N4CCC(CCNc5ccc(C6CCC(=O)NC6=O)cc5)CC4)ncc3Cl)ccc2n(C)c1=O (stereo not drawn) [Compound 284, 2-((6-((5-chloro-2-(4-(2-((4-(2,6-dioxopiperidin-3-yl)phenyl)amino)ethyl)piperidin-1-yl)pyrimidin-4-yl)amino)-1-methyl-2-oxo-1,2-dihydroquinolin-3-yl)oxy)-N-methylacetamide] | ++ (50% < Ymin ≤ 70%)
16 | CNC(=O)COc1cc2cc(Nc3nc(N4CCC(C5CN(c6cccc7c(C8CCC(=O)NC8=O)nn(C)c67)C5)CC4)ncc3Cl)ccc2n(C)c1=O (stereo not drawn) [Compound 286, 2-((6-((5-chloro-2-(4-(1-(3-(2,6-dioxopiperidin-3-yl)-1-methyl-1H-indazol-7-yl)azetidin-3-yl)piperidin-1-yl)pyrimidin-4-yl)amino)-1-methyl-2-oxo-1,2-dihydroquinolin-3-yl)oxy)-N-methylacetamide] | +++ (25% < Ymin ≤ 50%)
17 | CNC(=O)COc1cc2cc(Nc3nc(N4CCC(OC5CCN(c6ccc7c(C8CCC(=O)NC8=O)nn(C)c7c6)CC5)CC4)ncc3Cl)ccc2n(C)c1=O (stereo not drawn) [Compound 287, 2-((6-((5-chloro-2-(4-((1-(3-(2,6-dioxopiperidin-3-yl)-1-methyl-1H-indazol-6-yl)piperidin-4-yl)oxy)piperidin-1-yl)pyrimidin-4-yl)amino)-1-methyl-2-oxo-1,2-dihydroquinolin-3-yl)oxy)-N-methylacetamide] | +++ (25% < Ymin ≤ 50%)
18 | CNC(=O)COc1cc2cc(Nc3nc(N4CCC(CC5CCN(c6ccc7c(C8CCC(=O)NC8=O)nn(C)c7c6)CC5)CC4)ncc3Cl)ccc2n(C)c1=O (stereo not drawn) [Compound 288, 2-((6-((5-chloro-2-(4-((1-(3-(2,6-dioxopiperidin-3-yl)-1-methyl-1H-indazol-6-yl)piperidin-4-yl)methyl)piperidin-1-yl)pyrimidin-4-yl)amino)-1-methyl-2-oxo-1,2-dihydroquinolin-3-yl)oxy)-N-methylacetamide] | +++ (25% < Ymin ≤ 50%)
